Measurements from patent US12606561B2, “Substituted pyrazolo[1,5-a][1,3,5]triazines as CDK inhibitors” (QURIENT CO., LTD., priority 2018, dated 2026).

Columns and labels:
CDK1/Cyclin B = molecular target: T1, CDK1/Cyclin B (Homo sapiens, UniProt P06493); assay: Enzymatic assay for CDK1 (LANCE Ultra kinase assay, FRET based); assay type: biochemical; details: ATP at Km; read-out: CDK1 enzymatic activity IC50
T1 construct: purchased Invitrogen PR4768C
Summary of the method: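 Purified CDK–cyclin enzyme, ATP at Km; ULight peptide substrate; TR-FRET via Eu anti-phospho-Ab; inhibition scored.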

CDK2/Cyclin A = molecular target: T2, CDK2/Cyclin A (Homo sapiens, UniProt P24941); assay: Enzymatic assay for CDK2 (LANCE Ultra kinase assay, FRET based); assay type: biochemical; details: ATP at Km
T2 construct: purchased Invitrogen PV6290
Summary of the method: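 Inhibition was measured at ATP Km with 68 nM ULight-MBP peptide and CDK2/Cyclin A ([…]) or CDK5/p25 ([…]), using 8-dose 4-fold compound dilutions from DMSO. Kinase reaction ran 60 min at 23° C, then Eu anti-phospho-MBP plus EDTA were added for another 60 min before the fluorescence read.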

MV4-11 = assay: Cellular MV4-11 viability assay (CellTiter-Glo, 72 hours); assay type: cell-based; details: Homo sapiens; MV4-11 cells
Summary of the method: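 RPMI-1640/10% FBS; plate cells (MV4-11 1×10^4, OVCAR-3 5×10^3, A2780 1×10^3 per well); 24 h later add compound 0.0015–10 uM; 72 h, 37° C; CellTiter-Glo luminescence, duplicate wells.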

[1] = molecular target: 28 CDKs family protein kinases (Homo sapiens, UniProt Q00535); assay: In vitro IC50 profile for CDKs family kinase (33PanQinase Activity Assay, ProQinase); assay type: biochemical; design: fused on or other part: GST or His tag; details: CDK5/p25NCK; read-out: CDK7 selectivity profile in CDKs family, IC50
Description: The IC50 profile of compound 11 was determined using 28 CDKs family protein kinases through ProQinase GmbH (Freiburg, Germany). All the protocol and materials had been provided by ProQinase GmbH. Briefly, in the process, 90 μl H2O were added to each well of a compound dilution plate. To minimize potential precipitation, the H2O was added to the plate only a few minutes before the transfer of the compound solutions into the assay plates. The plate was shaken thoroughly, resulting in a “compound dilution plate/10% DMSO”. The compound dilution plate(s) were discarded at the end of the working day. For the assays (see below), 5 μl solution from each well of the compound dilution plate were transferred into the assay plates. The final volume of the assay was 50 μl. […] Kinases from external vendors, Carna Biosciences Inc.; Invitrogen Corp.; and Millipore Corp., were expressed, purified and quality-controlled by virtue of the vendors readings. […] Incorporation of ^33Pi was determined with a microplate scintillation counter (Microbeta, Wallac). […] The residual activity (in %) for each well of a particular plate was calculated by using the following formula: Res. Activity (%)=100×[(cpm of compound−low control)/(high control−low control)].

T1 sequence (P06493 whole entry): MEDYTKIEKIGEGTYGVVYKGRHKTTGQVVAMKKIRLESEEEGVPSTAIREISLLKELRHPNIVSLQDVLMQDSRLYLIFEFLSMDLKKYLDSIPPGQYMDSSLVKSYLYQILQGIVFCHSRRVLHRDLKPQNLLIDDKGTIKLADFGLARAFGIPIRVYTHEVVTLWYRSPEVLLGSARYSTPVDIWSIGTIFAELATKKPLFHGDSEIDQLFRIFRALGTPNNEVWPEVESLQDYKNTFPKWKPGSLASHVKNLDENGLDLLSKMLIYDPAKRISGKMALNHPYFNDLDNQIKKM
T1 sequence (P14635 whole entry partner): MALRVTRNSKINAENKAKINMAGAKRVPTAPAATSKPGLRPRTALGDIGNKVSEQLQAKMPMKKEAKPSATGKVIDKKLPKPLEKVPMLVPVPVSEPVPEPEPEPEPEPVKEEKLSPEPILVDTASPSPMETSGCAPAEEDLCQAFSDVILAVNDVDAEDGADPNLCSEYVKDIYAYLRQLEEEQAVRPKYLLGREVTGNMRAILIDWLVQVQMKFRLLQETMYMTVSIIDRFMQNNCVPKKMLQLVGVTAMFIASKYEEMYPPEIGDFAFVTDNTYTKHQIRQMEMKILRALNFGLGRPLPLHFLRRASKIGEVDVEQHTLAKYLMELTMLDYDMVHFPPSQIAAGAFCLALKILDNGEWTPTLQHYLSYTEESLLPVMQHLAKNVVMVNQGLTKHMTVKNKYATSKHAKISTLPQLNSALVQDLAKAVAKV
28 CDKs family protein kinases, sequence (Q00535 whole entry, the tested form may be a part): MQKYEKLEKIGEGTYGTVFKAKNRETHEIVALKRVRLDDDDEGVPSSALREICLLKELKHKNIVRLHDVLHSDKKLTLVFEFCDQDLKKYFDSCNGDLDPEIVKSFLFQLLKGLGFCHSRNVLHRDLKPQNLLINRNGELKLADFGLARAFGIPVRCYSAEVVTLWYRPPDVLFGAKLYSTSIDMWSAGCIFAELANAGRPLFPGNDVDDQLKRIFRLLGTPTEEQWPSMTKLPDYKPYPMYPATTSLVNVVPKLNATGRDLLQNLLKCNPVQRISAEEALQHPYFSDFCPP

CC(C)c1cnn2c(NCc3ccccc3-c3nccc4cc(NC(=O)/C=C/CN(C)C)ccc34)nc(N3CCC(N)CC3)nc12 [Compound 11]
IC50 (CDK1/Cyclin B): > 1000 nM | IC50 (CDK2/Cyclin A): > 1000 nM | IC50 (MV4-11): < 1000 nM | IC50 [1]: > 10000 nM
